The results in this text go back to patent US20250171423A1, “PHARMACEUTICAL COMPOUNDS FOR THE TREATMENT OF COMPLEMENT MEDIATED DISORDERS” (Achillion Pharmaceuticals, Inc., priority 2020, published 2025).

For this assay, the target named is T1, Human complement C1s enzyme (Homo sapiens, UniProt P09871).
T1 construct: purified from human serum, Complement Technology, Inc; purchased Complement Technology, Inc; host or cells: human serum
T1 sequence (P09871 438-688 limits assumed): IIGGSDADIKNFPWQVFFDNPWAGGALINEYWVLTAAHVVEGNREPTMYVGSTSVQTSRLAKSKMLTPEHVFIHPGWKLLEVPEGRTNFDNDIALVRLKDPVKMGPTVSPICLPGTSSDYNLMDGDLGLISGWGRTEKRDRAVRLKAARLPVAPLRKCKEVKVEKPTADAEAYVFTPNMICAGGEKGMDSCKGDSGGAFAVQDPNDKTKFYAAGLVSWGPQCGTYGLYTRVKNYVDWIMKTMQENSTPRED
T1 sequence (P09871 16-437 partner limits assumed): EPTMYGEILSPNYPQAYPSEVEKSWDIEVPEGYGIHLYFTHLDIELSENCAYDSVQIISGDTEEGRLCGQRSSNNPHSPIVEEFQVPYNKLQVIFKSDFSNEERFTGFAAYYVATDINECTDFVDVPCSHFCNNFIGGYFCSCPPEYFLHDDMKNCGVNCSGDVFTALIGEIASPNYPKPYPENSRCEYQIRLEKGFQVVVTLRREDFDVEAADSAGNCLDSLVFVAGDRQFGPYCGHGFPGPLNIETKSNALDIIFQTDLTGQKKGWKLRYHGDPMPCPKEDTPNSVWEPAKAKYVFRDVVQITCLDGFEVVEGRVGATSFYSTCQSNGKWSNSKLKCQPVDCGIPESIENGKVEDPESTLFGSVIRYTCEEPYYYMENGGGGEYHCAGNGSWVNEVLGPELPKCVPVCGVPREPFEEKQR
As to the kind of experiment: Human C1s Enzyme Assay. The format is biochemical. As to conditions: human C1s 1.16 nM, 5 min preincubation, substrate Z-L-Lys-SBzl 100 μM, A405; read-out: C1s Protease Activity. The procedure, abridged:
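IC50 values were fitted by nonlinear regression to rates measured as A405 every 30 s for 30 min. The thioester substrate Z-L-Lys-SBzl and Ellman's reagent were each at 100 μM. Serum-derived C1s at 1.16 nM final had 5 min of room-temperature preincubation with compound (pH 7.5 Tris buffer, 1 M NaCl).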

As to `N=C(N)c1csc(CNC(=O)[C@@H]2C[C@@H](Cc3ccc(C(F)(F)F)cc3)CN2C(=O)CNC(=O)c2ccc(Oc3ccccc3)cc2)c1` [Compound 17, (2S,4R)-N-((4-carbamimidoylthiophen-2-yl)methyl)-1-((4-phenoxybenzoyl)glycyl)-4-(4-(trifluoromethyl)benzyl)pyrrolidine-2-carboxamide], the IC50 is less than 100 nM.
Regarding `N=C(N)c1csc(CNC(=O)[C@@H]2CC3(COC3)CN2C(=O)CNC(=O)c2ccc(Oc3ccccc3)cc2)c1` [Compound 262, (S)-N-((4-carbamimidoylthiophen-2-yl)methyl)-6-((4-phenoxybenzoyl)glycyl)-2-oxa-6-azaspiro[3.4]octane-7-carboxamide], the IC50 is less than 100 nM.
To `C[C@@]12C[C@@H]1N(C(=O)CNC(=O)c1cc3cc(Oc4ccccc4)ccc3o1)[C@H](C(=O)NCc1cc(C(=N)N)cs1)C2` [Compound 132, (1S,3S,5S)-N-((4-carbamimidoylthiophen-2-yl)methyl)-5-methyl-2-((5-phenoxybenzofuran-2-carbonyl)glycyl)-2-azabicyclo[3.1.0]hexane-3-carboxamide] belongs less than 100 nM; to `C[C@@]12C[C@@H]1N(C(=O)CNC(=O)c1ccc(OC3CCCCC3)cc1)[C@H](C(=O)NCc1cc(C(=N)N)cs1)C2` [Compound 160, (1S,3S,5S)-N-((4-carbamimidoylthiophen-2-yl)methyl)-2-((4-(cyclohexyloxy)benzoyl)glycyl)-5-methyl-2-azabicyclo[3.1.0]hexane-3-carboxamide], less than 100 nM.
Consider `C[C@@H](NC(=O)[C@@H]1CC2(CN1C(=O)CNC(=O)CCCOc1ccc(F)cc1)OCCO2)c1cc(C(=N)N)cs1` [Compound 104, (S)-N-((R)-1-(4-carbamimidoylthiophen-2-yl)ethyl)-7-((4-(4-fluorophenoxy)butanoyl)-glycyl)-1,4-dioxa-7-azaspiro[4.4]nonane-8-carboxamide], for which the IC50 is less than 100 nM.
The value for `N=C(N)c1csc(CNC(=O)[C@@H]2C[C@@]3(CCO3)CN2C(=O)CNC(=O)c2ccc(Oc3ccccc3)cc2)c1` [Compound 194, (4R,7S)-N-((4-carbamimidoylthiophen-2-yl)methyl)-6-((4-phenoxybenzoyl)glycyl)-1-oxa-6-azaspiro[3.4]octane-7-carboxamide] was less than 100 nM; that for `N=C(N)c1csc(CNC(=O)[C@@H]2CC(=C(F)F)CN2C(=O)CNC(=O)CCCOc2ccccc2)c1` [Compound 26, (S)-N-((4-carbamimidoylthiophen-2-yl)methyl)-4-(difluoromethylene)-1-((4-phenoxy-butanoyl)glycyl)pyrrolidine-2-carboxamide] was less than 100 nM.
On to `COC[C@@H](NC(=O)[C@@H]1C[C@@H](OC(F)F)CN1C(=O)CNC(=O)c1ccc(Oc2ccccc2)cc1)c1cc(C(=N)N)cs1` [Compound 213, (2S,4R)-N-((R)-1-(4-carbamimidoylthiophen-2-yl)-2-methoxyethyl)-4-(difluoromethoxy)-1-((4-phenoxybenzoyl)glycyl)pyrrolidine-2-carboxamide], for which the IC50 is more than 1000 nM.
`Cc1sc(CNC(=O)[C@@H]2C[C@]3(C)C[C@@H]3N2C(=O)CNC(=O)CCCOc2ccccc2)cc1C(=N)N` [Compound 216, (1S,3S,5S)-N-((4-carbamimidoyl-5-methylthiophen-2-yl)methyl)-5-methyl-2-((4-phenoxybutanoyl)glycyl)-2-azabicyclo[3.1.0]hexane-3-carboxamide]: the IC50 was more than 1000 nM.
To `C[C@@]12C[C@@H]1N(C(=O)CN1CCc3cc(Oc4ccccc4)ccc3C1=O)[C@H](C(=O)NCc1cc(C(=N)N)cs1)C2` [Compound 161, (1S,3S,5S)-N-((4-carbamimidoylthiophen-2-yl)methyl)-5-methyl-2-(2-(1-oxo-6-phenoxy-3,4-dihydroisoquinolin-2(1H)-yl)acetyl)-2-azabicyclo[3.1.0]hexane-3-carboxamide] belongs less than 100 nM.
To `N=C(N)c1csc(CNC(=O)[C@@H]2C[C@@]3(CN2C(=O)CNC(=O)c2ccc(Oc4ccccc4)cc2)CC3(F)F)c1` [Compound 21, (3S,6S)-N-((4-carbamimidoylthiophen-2-yl)methyl)-1,1-difluoro-5-((4-phenoxy-benzoyl)glycyl)-5-azaspiro[2.4]heptane-6-carboxamide] belongs less than 100 nM; to `N=C(N)c1csc([C@H](NC(=O)[C@@H]2C[C@@H](OC(F)F)CN2C(=O)CNC(=O)c2ccc(Oc3ccccc3)cc2)C2CC2)c1` [Compound 183, (2S,4R)-N-((R)-(4-carbamimidoylthiophen-2-yl)(cyclopropyl)methyl)-4-(difluoromethoxy)-1-((4-phenoxybenzoyl)glycyl)pyrrolidine-2-carboxamide], more than 1000 nM; to `N=C(N)c1csc(CNC(=O)[C@@H]2C[C@]3(CN2C(=O)CNC(=O)CCCOc2ccccc2)CC3(F)F)c1` [Compound 57, (3R,6S)-N-((4-carbamimidoylthiophen-2-yl)methyl)-1,1-difluoro-5-((4-phenoxy-butanoyl)glycyl)-5-azaspiro[2.4]heptane-6-carboxamide], less than 100 nM.
The value for `CC1(C)SCN(C(=O)CNC(=O)CCCOc2ccccc2)[C@@H]1C(=O)NCc1cc(C(=N)N)cs1` [Compound 124, (R)-N-((4-carbamimidoylthiophen-2-yl)methyl)-5,5-dimethyl-3-((4-phenoxybutanoyl)glycyl)thiazolidine-4-carboxamide] was 100 to 1000 nM; that for `C[C@@H](NC(=O)[C@@H]1C[C@](F)(CF)CN1C(=O)CNC(=O)c1ccc(C(=O)c2ccccc2)cc1)c1cc(C(=N)N)cs1` [Compound 202, (2S,4R)-1-((4-benzoylbenzoyl)glycyl)-N-((R)-1-(4-carbamimidoylthiophen-2-yl)ethyl)-4-fluoro-4-(fluoromethyl)pyrrolidine-2-carboxamide] was less than 100 nM; that for `C[C@@H](NC(=O)[C@@H]1CC2(CCCC2)CN1C(=O)CNC(=O)CCCOc1ccccc1)c1cc(C(=N)N)cs1` [Compound 114, (S)-N-((R)-1-(4-carbamimidoylthiophen-2-yl)ethyl)-2-((4-phenoxybutanoyl)glycyl)-2-azaspiro[4.4]nonane-3-carboxamide] was less than 100 nM.
On to `CS(=O)(=O)[C@@H]1C[C@@H](C(=O)NCc2cc(C(=N)N)cs2)N(C(=O)CNC(=O)c2ccc(Oc3ccccc3)cc2)C1` [Compound 46, (2S,4R)-N-((4-carbamimidoylthiophen-2-yl)methyl)-4-(methylsulfonyl)-1-((4-phenoxybenzoyl)glycyl)pyrrolidine-2-carboxamide], for which the IC50 was less than 100 nM.
The value for `Cc1cccc([C@H]2C[C@@H](C(=O)NCc3cc(C(=N)N)cs3)N(C(=O)CNC(=O)CCCOc3ccccc3)C2)c1` [Compound 170, (2S,4R)-N-((4-carbamimidoylthiophen-2-yl)methyl)-1-((4-phenoxybutanoyl)glycyl)-4-(m-tolyl)pyrrolidine-2-carboxamide] was less than 100 nM; that for `CS(=O)(=O)[C@@H]1C[C@@H](C(=O)NCc2cc(C(=N)N)cs2)N(C(=O)CNC(=O)CCCOc2ccccc2)C1` [Compound 98, (2S,4R)-N-((4-carbamimidoylthiophen-2-yl)methyl)-4-(methylsulfonyl)-1-((4-phenoxybutanoyl)glycyl)pyrrolidine-2-carboxamide] was less than 100 nM; that for `C[C@@]12C[C@@H]1N(C(=O)CNC(=O)c1ccc(Oc3ccc(S(C)(=N)=O)cc3)cc1)[C@H](C(=O)NCc1cc(C(=N)N)cs1)C2` (stereo partly drawn) [Compound 3, (1S,3S,5S)-N-((4-carbamimidoylthiophen-2-yl)methyl)-5-methyl-2-((4-(4-(S-methyl-sulfonimidoyl)phenoxy)benzoyl)glycyl)-2-azabicyclo[3.1.0]hexane-3-carboxamide] was less than 100 nM.
Regarding `C[C@@]12C[C@@H]1N(C(=O)CNC(=O)c1ccccc1Oc1ccccc1)[C@H](C(=O)NCc1cc(C(=N)N)cs1)C2` [Compound 145, (1S,3S,5S)-N-((4-carbamimidoylthiophen-2-yl)methyl)-5-methyl-2-((2-phenoxybenzoyl)glycyl)-2-azabicyclo[3.1.0]hexane-3-carboxamide], the IC50 was less than 100 nM.
On to `C[C@@]12C[C@@H]1N(C(=O)CNC(=O)COCCOCCNC(=O)COCCOCCNC(=O)CC[C@H](NC(=O)CCCCCCCCCCCCCCCCC(=O)O)C(=O)O)[C@H](C(=O)NCc1cc(C(=N)N)cs1)C2` [Compound 100, 17-{[(1S)-3-{[2-(2-{[(2-{2-[({2-[(1S,3S,5S)-3-{[(4-carbamimidoylthiophen-2-yl)methyl]-carbamoyl}-5-methyl-2-azabicyclo[3.1.0]hexan-2-yl]-2-oxoethyl}carbamoyl)methoxy]ethoxy}ethyl)-carbamoyl]methoxy}ethoxy)ethyl]carbamoyl}-1-carboxypropyl]-carbamoyl}heptadecanoic acid], for which the IC50 is more than 1000 nM.
